Measurements as given in ChEMBL document CHEMBL1201862, “PubChem BioAssay data set” (2004).
Activity calls are given as the source filed them.

Key:
[1] = target: Ras and Rab interactor 1/Tyrosine-protein kinase ABL1 (Homo sapiens, UniProt P00519+Q13671); format: functional;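 further: biochemical TR-FRET dose-response test measuring inhibition of binding between Rin1 and Abl proteins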
P388/ADR = assay: cells; format: functional
SN12K1 = assay: cells; format: functional
P388 = assay: cells; format: functional
[2] = target: T1, RNA-binding protein pos-1 (Caenorhabditis elegans, UniProt G5EF15); assay: disruptors of C. elegans POS-1 RNA interaction – biochemical, fluorescence polarization, dose response (AID 1964);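 further: purified POS-1 fused to maltose binding protein made in E. coli; potency of compounds blocking POS-1 binding to fluorescent RNA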
T1 sequence (G5EF15 whole entry): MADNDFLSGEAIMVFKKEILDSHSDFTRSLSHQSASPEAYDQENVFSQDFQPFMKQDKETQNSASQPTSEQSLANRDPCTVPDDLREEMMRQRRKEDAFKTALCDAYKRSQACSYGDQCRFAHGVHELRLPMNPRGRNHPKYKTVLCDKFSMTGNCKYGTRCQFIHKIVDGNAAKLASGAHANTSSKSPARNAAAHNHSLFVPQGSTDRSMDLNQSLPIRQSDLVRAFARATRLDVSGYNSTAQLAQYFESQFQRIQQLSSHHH

[3] = target: T2, Zinc finger protein mex-5 (Caenorhabditis elegans, UniProt Q9XUB2); assay: potency of MEX-5 RNA-binding blockers – biochemical, C. elegans, fluorescence polarization, dose response (AID 1960)
T2 sequence (Q9XUB2 whole entry): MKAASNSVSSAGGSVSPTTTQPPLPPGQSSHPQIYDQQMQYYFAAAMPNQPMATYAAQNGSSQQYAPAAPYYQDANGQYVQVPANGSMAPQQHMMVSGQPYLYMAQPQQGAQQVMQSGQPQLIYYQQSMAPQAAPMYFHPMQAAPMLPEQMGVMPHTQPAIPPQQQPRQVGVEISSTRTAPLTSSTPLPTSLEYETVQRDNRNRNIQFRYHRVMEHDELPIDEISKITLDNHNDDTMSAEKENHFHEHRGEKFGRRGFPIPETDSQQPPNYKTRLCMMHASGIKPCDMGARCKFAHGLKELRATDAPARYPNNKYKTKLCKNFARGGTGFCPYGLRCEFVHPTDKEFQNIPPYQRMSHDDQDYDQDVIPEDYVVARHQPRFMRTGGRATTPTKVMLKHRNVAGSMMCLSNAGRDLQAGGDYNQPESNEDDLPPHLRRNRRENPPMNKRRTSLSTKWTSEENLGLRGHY

Large T antigen = Large T antigen (Simian virus 40, UniProt P03070); format: functional, Betapolyomavirus macacae;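 further: Confirmatory-stage PubChem screen for compounds that inhibit SV40 T antigen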
[4] = target: Glucose-6-phosphate 1-dehydrogenase (Homo sapiens, UniProt P11413); assay: inhibition of Homo sapiens G6PD, dose series – biochemical, fluorescence, selectivity assay for P. falciparum G6PD inhibitor project, dose response (AID 504792); format: functional
[5] = target: FAD-linked sulfhydryl oxidase ALR (Homo sapiens, UniProt P55789); assay: ALR-catalysed DTT oxidation blockers – biochemical, H2O2 detection, luminescence, cherry-pick, dose response (AID 493248)
[6] = intracellular Trypanosoma cruzi inhibitors in host cells – cell-based, plate reader, cherry-pick samples, set 3, dose response (AID 651818); format: functional;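 further: compounds incubated with infected cells for about four days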
[7] = target: T3, Replicative DNA helicase DnaB (Mycobacterium tuberculosis, UniProt P9WMR3); assay: DnaB intein splicing inhibitors, dose response, biochemical, cell-free fluorescence (AID 449749); format: functional
T3 sequence (P9WMR3 whole entry): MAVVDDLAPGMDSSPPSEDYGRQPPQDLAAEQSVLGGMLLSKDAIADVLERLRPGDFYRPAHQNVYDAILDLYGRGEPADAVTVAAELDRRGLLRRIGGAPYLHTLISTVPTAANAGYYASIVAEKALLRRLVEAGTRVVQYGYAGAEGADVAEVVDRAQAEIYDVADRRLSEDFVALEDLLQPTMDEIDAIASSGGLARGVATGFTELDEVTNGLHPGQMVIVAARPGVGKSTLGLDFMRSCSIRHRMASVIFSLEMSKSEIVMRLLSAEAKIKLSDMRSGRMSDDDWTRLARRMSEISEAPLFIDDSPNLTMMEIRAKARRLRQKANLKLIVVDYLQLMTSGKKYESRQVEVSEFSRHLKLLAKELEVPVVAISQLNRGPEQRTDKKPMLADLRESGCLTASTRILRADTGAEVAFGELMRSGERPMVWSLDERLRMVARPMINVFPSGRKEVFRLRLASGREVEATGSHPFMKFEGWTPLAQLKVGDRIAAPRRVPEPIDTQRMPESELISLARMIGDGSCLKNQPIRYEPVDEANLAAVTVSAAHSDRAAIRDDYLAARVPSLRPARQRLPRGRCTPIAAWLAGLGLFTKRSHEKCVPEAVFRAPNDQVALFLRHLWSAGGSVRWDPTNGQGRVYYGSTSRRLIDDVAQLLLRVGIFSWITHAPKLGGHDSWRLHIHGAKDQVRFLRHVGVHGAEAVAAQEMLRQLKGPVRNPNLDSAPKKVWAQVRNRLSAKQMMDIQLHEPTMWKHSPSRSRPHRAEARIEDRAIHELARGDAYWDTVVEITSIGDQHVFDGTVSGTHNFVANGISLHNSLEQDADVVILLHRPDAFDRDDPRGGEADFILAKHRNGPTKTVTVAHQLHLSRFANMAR

Protein RecA = target: T4, Protein RecA (Mycobacterium tuberculosis, UniProt P9WHJ3); assay: Fluorescence Cell-Free Homogeneous Dose Retest to Identify Inhibitors of RecA-Intein Splicing Activity. [Related pubchem assays (depositor defined):AID2097, AID2223, AID489010, AID492950]; format: functional
T4 sequence (P9WHJ3 whole entry): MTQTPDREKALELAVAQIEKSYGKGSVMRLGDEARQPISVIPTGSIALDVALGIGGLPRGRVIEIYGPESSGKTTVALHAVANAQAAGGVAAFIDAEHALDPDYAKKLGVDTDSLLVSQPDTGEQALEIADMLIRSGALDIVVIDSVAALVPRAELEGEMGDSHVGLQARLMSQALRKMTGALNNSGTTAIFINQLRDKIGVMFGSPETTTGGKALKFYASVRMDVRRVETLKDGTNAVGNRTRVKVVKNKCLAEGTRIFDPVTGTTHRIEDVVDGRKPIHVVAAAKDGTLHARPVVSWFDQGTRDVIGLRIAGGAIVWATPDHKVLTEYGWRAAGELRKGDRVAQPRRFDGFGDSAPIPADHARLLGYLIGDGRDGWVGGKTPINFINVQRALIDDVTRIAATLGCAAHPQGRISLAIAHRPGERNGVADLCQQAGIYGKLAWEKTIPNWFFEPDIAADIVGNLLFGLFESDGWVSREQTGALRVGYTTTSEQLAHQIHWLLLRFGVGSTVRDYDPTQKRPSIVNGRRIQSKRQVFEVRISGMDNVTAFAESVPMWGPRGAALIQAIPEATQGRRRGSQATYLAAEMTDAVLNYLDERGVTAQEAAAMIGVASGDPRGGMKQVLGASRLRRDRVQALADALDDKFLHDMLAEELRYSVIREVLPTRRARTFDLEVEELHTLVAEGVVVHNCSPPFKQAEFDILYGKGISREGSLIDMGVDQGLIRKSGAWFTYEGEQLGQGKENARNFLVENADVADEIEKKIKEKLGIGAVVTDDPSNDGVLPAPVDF

[8] = target: T5, Short transient receptor potential channel 4 (Mus musculus, UniProt Q9QUQ5); assay: calcium entry via TRPC4 opening agents – cell-based, HEK293 TRPC4/mu-opioid, Fluo-4 calcium, dose response (AID 434937); format: functional
T5 sequence (Q9QUQ5 whole entry): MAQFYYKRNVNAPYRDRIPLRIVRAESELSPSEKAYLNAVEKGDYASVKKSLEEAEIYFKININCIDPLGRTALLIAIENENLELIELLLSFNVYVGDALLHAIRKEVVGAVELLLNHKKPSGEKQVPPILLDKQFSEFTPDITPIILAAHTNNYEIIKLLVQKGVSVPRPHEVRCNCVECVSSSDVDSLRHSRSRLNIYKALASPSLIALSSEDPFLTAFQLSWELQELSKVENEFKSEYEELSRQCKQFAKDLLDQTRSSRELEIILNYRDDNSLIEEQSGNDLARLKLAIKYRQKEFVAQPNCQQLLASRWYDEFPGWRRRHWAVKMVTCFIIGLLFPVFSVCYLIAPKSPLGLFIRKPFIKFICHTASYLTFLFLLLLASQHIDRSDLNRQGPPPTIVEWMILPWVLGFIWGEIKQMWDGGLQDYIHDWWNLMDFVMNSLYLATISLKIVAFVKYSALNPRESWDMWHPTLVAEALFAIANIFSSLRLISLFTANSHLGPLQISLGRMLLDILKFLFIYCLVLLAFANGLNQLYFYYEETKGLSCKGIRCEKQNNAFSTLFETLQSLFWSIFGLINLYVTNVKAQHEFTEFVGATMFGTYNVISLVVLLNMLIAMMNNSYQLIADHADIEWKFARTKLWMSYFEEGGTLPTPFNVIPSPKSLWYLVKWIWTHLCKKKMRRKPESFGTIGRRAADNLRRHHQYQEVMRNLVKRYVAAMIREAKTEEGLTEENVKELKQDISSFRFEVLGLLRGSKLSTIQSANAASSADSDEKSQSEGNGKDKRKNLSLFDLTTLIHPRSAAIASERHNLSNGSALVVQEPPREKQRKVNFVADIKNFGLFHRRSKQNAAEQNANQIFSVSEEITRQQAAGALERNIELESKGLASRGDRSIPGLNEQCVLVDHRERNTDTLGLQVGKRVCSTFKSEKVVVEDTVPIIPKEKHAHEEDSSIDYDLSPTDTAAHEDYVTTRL

Protein Wnt-3a = Protein Wnt-3a (Mus musculus, UniProt P27467); assay: antagonism of Wnt3a pathway luciferase reporter – Wnt-LIGHT cells, luminescence, selectivity assay for Gli-SUFU antagonist project, dose response (AID 651570); format: functional; settings: read-out: IC50_Mean;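 further: Wnt-LIGHT reporter cells stimulated with conditioned medium from Wnt3a-producing cells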
HEK293 [9] = assay: inhibition of NOD1-driven NF-kB reporter – cell-based, luminescence, uHTS, primary screen (AID 1578); format: functional; settings: Homo sapiens
HEK293 [10] = assay: cells; format: functional, cell-based; settings: Homo sapiens
HEK293 [11] = assay: cells; format: functional, cell-based; settings: Homo sapiens; remark: listed apart in the source
HEK293 [12] = assay: NOD2 signaling inhibitors in MDP-stimulated cells, cell-based, uHTS, luminescence (AID 2001); format: functional; settings: Homo sapiens

Sequence of Ras and Rab interactor 1/Tyrosine-protein kinase ABL1 (P00519 whole entry): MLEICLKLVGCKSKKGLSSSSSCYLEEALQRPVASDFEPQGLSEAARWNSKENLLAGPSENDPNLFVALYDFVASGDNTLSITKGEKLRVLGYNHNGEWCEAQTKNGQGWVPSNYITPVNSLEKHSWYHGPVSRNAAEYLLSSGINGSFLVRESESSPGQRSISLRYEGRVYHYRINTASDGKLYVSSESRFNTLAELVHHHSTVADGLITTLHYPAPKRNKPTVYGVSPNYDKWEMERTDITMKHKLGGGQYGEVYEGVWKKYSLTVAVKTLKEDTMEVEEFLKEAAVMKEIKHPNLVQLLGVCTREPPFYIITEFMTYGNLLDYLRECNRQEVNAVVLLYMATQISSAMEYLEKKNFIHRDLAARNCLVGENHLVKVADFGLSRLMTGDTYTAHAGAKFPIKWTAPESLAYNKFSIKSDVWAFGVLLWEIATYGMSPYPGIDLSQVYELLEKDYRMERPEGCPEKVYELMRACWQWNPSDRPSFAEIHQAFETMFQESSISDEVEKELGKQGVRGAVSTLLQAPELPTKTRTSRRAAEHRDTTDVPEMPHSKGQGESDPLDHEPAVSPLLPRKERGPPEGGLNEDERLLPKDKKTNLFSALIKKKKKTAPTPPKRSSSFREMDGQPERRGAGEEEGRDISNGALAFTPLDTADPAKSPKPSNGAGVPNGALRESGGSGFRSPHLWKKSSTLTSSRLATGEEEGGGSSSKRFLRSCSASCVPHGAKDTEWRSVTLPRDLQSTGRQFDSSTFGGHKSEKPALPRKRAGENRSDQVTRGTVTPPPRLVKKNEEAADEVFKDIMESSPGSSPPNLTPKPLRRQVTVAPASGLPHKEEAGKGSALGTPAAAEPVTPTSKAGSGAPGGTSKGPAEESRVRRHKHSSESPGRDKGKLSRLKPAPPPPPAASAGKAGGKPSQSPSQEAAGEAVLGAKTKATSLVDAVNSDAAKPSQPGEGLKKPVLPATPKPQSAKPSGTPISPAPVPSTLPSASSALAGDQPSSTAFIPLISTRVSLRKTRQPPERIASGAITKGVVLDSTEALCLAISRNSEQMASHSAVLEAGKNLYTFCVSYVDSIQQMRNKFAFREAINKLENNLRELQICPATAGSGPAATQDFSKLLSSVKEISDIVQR
Sequence of Ras and Rab interactor 1/Tyrosine-protein kinase ABL1 (Q13671 whole entry): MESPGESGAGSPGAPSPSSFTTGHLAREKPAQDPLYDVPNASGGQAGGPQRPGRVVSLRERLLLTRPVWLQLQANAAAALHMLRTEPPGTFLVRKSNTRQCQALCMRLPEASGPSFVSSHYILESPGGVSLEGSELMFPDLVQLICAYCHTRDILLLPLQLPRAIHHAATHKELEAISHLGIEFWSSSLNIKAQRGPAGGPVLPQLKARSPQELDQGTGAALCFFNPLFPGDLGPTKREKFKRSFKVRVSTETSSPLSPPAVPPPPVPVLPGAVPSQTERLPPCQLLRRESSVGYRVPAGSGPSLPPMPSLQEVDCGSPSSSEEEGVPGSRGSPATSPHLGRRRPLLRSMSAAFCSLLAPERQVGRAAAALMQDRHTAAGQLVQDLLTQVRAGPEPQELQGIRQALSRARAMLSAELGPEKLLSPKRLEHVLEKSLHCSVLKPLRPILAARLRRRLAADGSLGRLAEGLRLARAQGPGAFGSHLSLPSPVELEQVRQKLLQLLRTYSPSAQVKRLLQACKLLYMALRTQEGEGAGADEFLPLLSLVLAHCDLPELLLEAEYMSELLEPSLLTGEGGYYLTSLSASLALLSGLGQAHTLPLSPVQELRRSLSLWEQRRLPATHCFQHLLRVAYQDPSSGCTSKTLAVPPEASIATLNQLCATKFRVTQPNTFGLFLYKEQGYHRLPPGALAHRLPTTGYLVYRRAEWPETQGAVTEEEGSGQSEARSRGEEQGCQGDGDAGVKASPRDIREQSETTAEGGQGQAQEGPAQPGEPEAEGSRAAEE
Sequence of Glucose-6-phosphate 1-dehydrogenase (P11413 whole entry): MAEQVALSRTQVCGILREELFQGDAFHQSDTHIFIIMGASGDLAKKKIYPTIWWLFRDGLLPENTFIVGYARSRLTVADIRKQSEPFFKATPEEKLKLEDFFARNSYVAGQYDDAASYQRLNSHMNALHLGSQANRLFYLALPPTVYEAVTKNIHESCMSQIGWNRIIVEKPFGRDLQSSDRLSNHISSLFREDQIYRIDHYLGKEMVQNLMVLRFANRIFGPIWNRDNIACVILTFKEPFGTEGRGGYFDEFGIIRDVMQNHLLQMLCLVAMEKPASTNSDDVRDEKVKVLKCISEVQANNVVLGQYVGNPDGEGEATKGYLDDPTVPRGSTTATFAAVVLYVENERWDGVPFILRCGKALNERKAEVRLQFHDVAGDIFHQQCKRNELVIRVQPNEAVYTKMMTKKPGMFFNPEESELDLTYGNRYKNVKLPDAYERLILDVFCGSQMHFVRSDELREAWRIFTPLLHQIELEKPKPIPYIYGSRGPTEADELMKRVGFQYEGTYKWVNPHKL
Sequence of Protein Wnt-3a (P27467 whole entry): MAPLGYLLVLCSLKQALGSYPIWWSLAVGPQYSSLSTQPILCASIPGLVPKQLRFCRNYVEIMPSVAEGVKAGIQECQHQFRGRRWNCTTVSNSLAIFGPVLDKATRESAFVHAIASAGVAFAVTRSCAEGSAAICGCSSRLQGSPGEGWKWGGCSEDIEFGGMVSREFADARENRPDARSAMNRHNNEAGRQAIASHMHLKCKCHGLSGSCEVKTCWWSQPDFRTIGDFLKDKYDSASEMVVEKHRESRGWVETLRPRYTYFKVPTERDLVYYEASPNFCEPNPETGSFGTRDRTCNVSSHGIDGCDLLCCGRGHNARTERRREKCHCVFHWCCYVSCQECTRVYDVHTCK
Sequence of Large T antigen (P03070 whole entry): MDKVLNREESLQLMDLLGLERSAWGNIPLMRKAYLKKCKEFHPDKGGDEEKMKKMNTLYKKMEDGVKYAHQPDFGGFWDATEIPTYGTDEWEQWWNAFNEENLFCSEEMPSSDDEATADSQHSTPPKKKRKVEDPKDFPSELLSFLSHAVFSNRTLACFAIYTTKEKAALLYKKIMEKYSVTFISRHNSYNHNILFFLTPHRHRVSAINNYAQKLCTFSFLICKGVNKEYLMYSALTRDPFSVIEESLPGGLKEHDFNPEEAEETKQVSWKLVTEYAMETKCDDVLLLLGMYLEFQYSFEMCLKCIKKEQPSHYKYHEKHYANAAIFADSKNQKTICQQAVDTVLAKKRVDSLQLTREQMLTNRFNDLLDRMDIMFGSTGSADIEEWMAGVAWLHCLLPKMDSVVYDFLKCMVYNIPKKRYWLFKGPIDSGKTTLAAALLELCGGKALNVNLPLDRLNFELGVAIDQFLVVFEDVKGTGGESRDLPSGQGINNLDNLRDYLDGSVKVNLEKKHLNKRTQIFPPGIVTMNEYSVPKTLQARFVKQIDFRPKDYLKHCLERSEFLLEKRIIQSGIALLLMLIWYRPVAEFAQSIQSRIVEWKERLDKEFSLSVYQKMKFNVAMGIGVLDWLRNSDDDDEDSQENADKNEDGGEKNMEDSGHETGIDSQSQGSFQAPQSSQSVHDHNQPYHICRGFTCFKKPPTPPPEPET
Sequence of FAD-linked sulfhydryl oxidase ALR (P55789 whole entry): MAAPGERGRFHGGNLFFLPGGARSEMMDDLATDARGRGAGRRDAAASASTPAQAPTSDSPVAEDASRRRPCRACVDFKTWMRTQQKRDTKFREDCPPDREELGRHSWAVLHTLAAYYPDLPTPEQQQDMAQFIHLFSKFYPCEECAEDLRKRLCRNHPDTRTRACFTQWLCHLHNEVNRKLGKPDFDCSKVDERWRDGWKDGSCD

SMILES: CN(C(=O)c1ccc(NC(=O)Cc2ccc(NC(=O)C3CCN(C(=O)C4CCCC4)CC3)cc2)cc1)C1CCCC1
- IC50 [1]: 12.6 µM (inactive)

SMILES: OCCCNc1ncnc2c1ncn2[C@H]1CN(Cc2ccc(-c3ccccc3)cc2)C[C@@H](CO)O1
- IC50 [1]: 20.6 µM (inactive)

SMILES: Nc1cc2c(cc1[N+](=O)[O-])[nH]c1c(-c3ccccc3)nccc12
- GI50 (P388/ADR; Mus musculus, P388/ADR): 17.7 µM (inactive)
- GI50 (SN12K1; Homo sapiens, SN12K1): 20.7 µM (inactive)
- GI50 (P388; Mus musculus, P388): 17.2 µM (inactive)

SMILES: CCCN1CCc2cccc3c2[C@H]1Cc1ccc(O)c(O)c1-3
- EC50 [2]: 5.56 µM (active)
- EC50 [3]: 3.12 µM (active)
- IC50 (Large T antigen): 29.7 µM (active)
- IC50 [4]: > 80 µM (inactive)
- AC50 [5]: 0.009 µM (active)

SMILES: COc1ccc2[nH]c3c(C)c4cc[n+](C)cc4c(C)c3c2c1
- GI50 (P388/ADR): 47.4 µM (inactive)
- GI50 (SN12K1): 0.287 µM (active)
- GI50 (P388): 0.796 µM (active)

SMILES: C[C@@H]1CN([C@@H](C)CO)C(=O)c2cccc(NC(=O)c3nc4ccccc4s3)c2O[C@H]1CN(C)Cc1ccc(C(=O)Nc2ccccc2N)cc1
- AC50 [6]: 2.09 µM (active)

SMILES: O=C1CCCn2c3ccccc3c3ccnc1c32
- GI50 (P388/ADR; Mus musculus, P388/ADR): 20 µM (inactive)
- GI50 (SN12K1; Homo sapiens, SN12K1): 39.9 µM (inactive)
- GI50 (P388; Mus musculus, P388): 22.6 µM (inactive)

SMILES: O=S(=O)(Nc1c(O)ccc2ccccc12)c1ccccc1
- IC50 [4]: 29.9 µM (inactive)
- AC50 [7]: 5.09 µM (active)
- EC50 (Protein RecA): 1.51 µM (active)

SMILES: Cn1sc2ccccc2c1=S
- GI50 (P388/ADR; Mus musculus, P388/ADR): 0.441 µM (active)
- GI50 (SN12K1; Homo sapiens, SN12K1): 2.79 µM (inactive)
- GI50 (P388; Mus musculus, P388): 0.294 µM (active)

SMILES: O=P1(Oc2ccc(Cl)cc2Cl)Oc2ccc3ccccc3c2-c2c(ccc3ccccc23)O1
- GI50 (P388/ADR; Mus musculus, P388/ADR): 51.4 µM (inactive)
- GI50 (SN12K1; Homo sapiens, SN12K1): 20.7 µM (inactive)
- GI50 (P388; Mus musculus, P388): 33.3 µM (inactive)

SMILES: NCCCNC(=O)c1cc2ccccc2[nH]1
- EC50 [8]: 7.5 µM (active)

SMILES: CC(C)(C)c1cc(Cl)ccc1OCCn1ccnc1
- EC50 [8]: 5.96 µM (active)

SMILES: C[C@H]1CN([C@@H](C)CO)C(=O)c2cc(NS(=O)(=O)c3ccccc3)ccc2O[C@@H]1CN(C)Cc1ccc(-c2ccccc2)cc1
- AC50 [6]: 6.29 µM (active)

SMILES: Cc1ccc(NCC(=O)Nc2cccc(S(=O)(=O)N(C)C)c2)cc1S(=O)(=O)N1CCCCCC1
- IC50 (Protein Wnt-3a): 8.18 µM (active)

SMILES: C[C@H](CO)N1C[C@H](C)[C@H](CN(C)Cc2ccc(-c3ccccc3)cc2)Oc2c(NC(=O)NC3CCCCC3)cccc2C1=O
- AC50 [6]: 3.38 µM (active)

SMILES: CCN(CC)C(=O)c1ccc(NC(=O)c2cc(S(=O)(=O)N3CCCCCC3)ccc2OC)cc1
- IC50 [1]: 0.618 µM (active)

SMILES: Cc1ccc(C(=O)N2CCN3C(=O)c4ccccc4C23c2ccc(Cl)cc2)cc1 (configuration not stated)
- IC50 (Protein Wnt-3a): 10.3 µM (active)

SMILES: Oc1nc(CCl)nc2cc(-c3ccc(F)cc3)sc12
- EC50 (HEK293 [9]): 13.1 µM (active)
- IC50 (HEK293 [10]): 12.6 µM (active)
- IC50 (HEK293 [11]): > 20 µM (inactive)
- IC50 (HEK293 [12]): 15.2 µM (inactive)
